From patent US12377152B2, “Compounds for degrading alpha-synuclein aggregates and uses thereof” (APRINOIA THERAPEUTICS LIMITED, priority 2019, dated 2025)

Biological target: α-synuclein aggregates (Homo sapiens (Human), UniProt P37840)
Assay: ReNcell VM α-synuclein aggregation assay
Format: cell-based
Conditions: for DC50: ReNcell VM cells, read-out: Activity (DC50, concentration at which 50% of α-synuclein aggregates has been degraded)
Method: The ReNcell VM α-synuclein aggregation assay was conducted at Charles River Laboratories (CRL). ReNcell VM is an immortalized human neural progenitor cell line derived from the ventral mesencephalon region of the brain. ReNcell VM cells were selected as in vitro cellular model for the α-synuclein aggregation assay, based on their growth features, differentiation potential into terminally differentiated neurons and amenability to adenoviral transduction. Aggregated human wild type α-synuclein was overexpressed through adenoviral delivery. Aggregated α-synuclein was detected with the aggregate-selective anti-α-synuclein antibody MJFR14 using immunocytochemistry; total α-synuclein levels were detected with Syn205 (α/β-synuclein-specific antibody).
The ReNcell VM α-synuclein aggregation assay was applied for compound screening to identify compounds capable of degrading α-synuclein aggregates. […] Immunoreactivity toward aggregated (MJFR14) and total α-synuclein (Syn205) was quantified using high content-based segmentation of immunoactive areas in immunocytochemical images (performed with the IN Cell 2200 (GE Healthcare)), followed by quantification of immunofluorescent intensity (performed by CRL's developed algorithm using IN Cell Developer Toolbox software).
Percentage effect (PE): Inhibition in comparison to BLANK (0.1% DMSO).
PE=100−(signal of compound/average signal BLANK)×100
Compound-induced cytotoxicity (% remaining cells)
% remaining cells=(nuclei count of compound/average nuclei count of BLANK)×100

[1] = 24 hour treatment, differentiated ReNcell VM cells

DC50 [µM]	inhibition of MJFR14 immunoreactivity [1]	inhibition of MJFR14 immunoreactivity (6-day treatment, immunocytochemical images)	SMILES
> 10			Cc1ncsc1-c1ccc(CNC(=O)[C@@H]2C[C@@H](O)CN2C(=O)[C@@H](NC(=O)COCCOCCOCCOCCOCCNc2ccc3nc(-c4ccc(-c5ccc(N(C)C)nc5)cc4)sc3c2)C(C)(C)C)cc1 (racemic) [Compound 161247, rac-(2R,4S)—N-[[4-(4-methyl-1,3-thiazol-5-yl)phenyl]methyl]-4-hydroxy-1-[rac-(2R)-2-[2-[2-[2-[2-[2-[2-[[2-[4-[6-(dimethylamino)pyridin-3-yl]phenyl]-1,3-benzothiazol-6-yl]-amino]ethoxy]ethoxy]ethoxy]ethoxy]ethoxy]ethanoylamino]-3,3-dimethyl-butanoyl]pyrrolidine-2-carboxamide]
> 10			Cc1ncsc1-c1ccc(CNC(=O)[C@@H]2C[C@@H](O)CN2C(=O)[C@@H](NC(=O)COCCOCCOCCOCCOCCNc2ccc(-c3ccc(-c4nc5ccc(N(C)C)cc5s4)cc3)cn2)C(C)(C)C)cc1 (racemic) [Compound 161598, rac-(2R,4S)—N-[[4-(4-methyl-1,3-thiazol-5-yl)phenyl]methyl]-4-oxidanyl-1-[rac-(2R)-2-[2-[2-[2-[2-[2-[2-[[5-[4-[6-(dimethylamino)-1,3-benzothiazol-2-yl]phenyl]pyridin-2-yl]amino]ethoxy]ethoxy]ethoxy]ethoxy]ethoxy]ethanoylamino]-3,3-dimethyl-butanoyl]pyrrolidine-2-carboxamide]
> 10			CN(C)c1ccc(-c2ccc(-c3nc4ccc(NCCCOCCCOc5ccc6c(c5)CN(C5CCC(=O)NC5=O)C6=O)cc4s3)c(C(F)(F)F)c2)cn1 (stereo not shown) [Compound 123374]
> 10			COc1ccc2nc(-c3ccc(-c4ccnc(NCCOCCOc5ccc6c(c5)C(=O)N(C5CCC(=O)NC5=O)C6=O)c4)cc3)cn2c1 (stereo not shown) [Compound 129975]
> 10			COc1ccc2nc(-c3ccc(-c4ccnc(NC(=O)CCCCOc5ccc6c(c5)CN(C5CCC(=O)NC5=O)C6=O)c4)cc3)cn2c1 (stereo not shown) [Compound 130177]
> 10			CN(C)c1ccc(-c2ccc(-c3nc4ccc(NC(=O)CCOCCOc5ccc6c(c5)CN(C5CCC(=O)NC5=O)C6=O)cc4s3)c(C(F)(F)F)c2)cn1 (stereo not shown) [Compound 132560]
> 10			CN1C(=O)CCC(N2Cc3cc(OCCOCCNc4ccc5nc(-c6ccc(-c7ccc(N(C)C)nc7)cc6C(F)(F)F)sc5c4)ccc3C2=O)C1=O (stereo not shown) [Compound 133065]
> 10			O=C1CCC(N2Cc3cc(OCCCC(=O)Nc4cc(-c5ccc(-c6nc7ccc(F)cc7s6)cc5)ccn4)ccc3C2=O)C(=O)N1 (stereo not shown) [Compound 133678]
> 10			O=C1CCC(N2Cc3cc(OCCOCCNc4cc(-c5ccc(-c6cn7ccccc7n6)cc5)ccn4)ccc3C2=O)C(=O)N1 (stereo not shown) [Compound 137955]
> 10			CN(C)c1ccc(-c2ccc(-c3nc4ccc(NC(=O)CCOCCOCCOc5ccc6c(c5)CN(C5CCC(=O)NC5=O)C6=O)cc4s3)c(C(F)(F)F)c2)cn1 (stereo not shown) [Compound 138266]
0.9 to 10			COc1ccc2nc(-c3ccc(-c4ccnc(NC(=O)CCCOc5ccc6c(c5)CN(C5CCC(=O)NC5=O)C6=O)c4)cc3)sc2c1 (stereo not shown) [Compound 138876]
> 10			CN(C)c1ccc(-c2ccc(-c3nc4ccc(NCCOCCOCCOCCOCCOCCOc5ccc6c(c5)C(=O)N(C5CCC(=O)NC5=O)C6=O)cc4s3)cc2)cn1 (stereo not shown) [Compound 159985, 2-[2,6-bis(oxo)piperidin-3-yl]-5-[2-[2-[2-[2-[2-[2-[[2-[4-[6-(dimethylamino)-pyridin-3-yl]phenyl]-1,3-benzothiazol-6-yl]amino]ethoxy]ethoxy]ethoxy]ethoxy]ethoxy]-ethoxy]isoindole-1,3-dione]
> 10			CN(C)c1ccc(-c2ccc(-c3nc4ccc(NCCOCCOc5ccc6c(c5)C(=O)N(C5CCC(=O)NC5=O)C6=O)cc4s3)cc2)cn1 (stereo not shown) [Compound 160219, 2-[2,6-bis(oxo)piperidin-3-yl]-5-[2-[2-[[2-[4-[6-(dimethylamino)pyridin-3-yl]phenyl]-1,3-benzothiazol-6-yl]amino]ethoxy]ethoxy]isoindole-1,3-dione]
0.01 to 0.9			CN(C)c1ccc(-c2ccc(-c3nc4ccc(NCCOCCOCCOCCOCCOCCOc5ccc6c(c5)CN(C5CCC(=O)NC5=O)C6=O)cc4s3)cc2)cn1 (stereo not shown) [Compound 160273, 3-[6-[2-[2-[2-[2-[2-[2-[[2-[4-[6-(dimethylamino)pyridin-3-yl]phenyl]-1,3-benzothiazol-6-yl]amino]ethoxy]-ethoxy]ethoxy]ethoxy]ethoxy]ethoxy]-3-oxo-1H-isoindol-2-yl]piperidine-2,6-dione]
> 10			CN(C)c1ccc(-c2ccc(-c3nc4ccc(NCCOCCOc5ccc6c(c5)CN(C5CCC(=O)NC5=O)C6=O)cc4s3)cc2)cn1 (stereo not shown) [Compound 160313, 3-[6-[2-[2-[[2-[4-[6-(dimethylamino)pyridin-3-yl]phenyl]-1,3-benzothiazol-6-yl]amino]ethoxy]ethoxy]-3-oxo-1H-isoindol-2-yl]piperidine-2,6-dione]
> 10			CN(C)c1ccc2nc(-c3ccc(-c4ccc(NCCOCCN5C(=O)CCC(N6Cc7cc(O)ccc7C6=O)C5=O)nc4)cc3)sc2c1 (stereo not shown) [Compound 160624, 1-(2-(2-((5-(4-(6-(dimethylamino)benzo[d]thiazol-2-yl)phenyl)pyridin-2-yl)amino)ethoxy)ethyl)-3-(5-hydroxy-1-oxoisoindolin-2-yl)piperidine-2,6-dione]
> 10			CN(C)c1ccc(-c2ccc(-c3cn4cc(OCCOCCOc5ccc6c(c5)C(=O)N(C5CCC(=O)NC5=O)C6=O)ccc4n3)cc2)c(F)n1 (stereo not shown) [Compound 161111, 2-[2,6-bis(oxo)piperidin-3-yl]-5-[2-[2-[2-[4-[6-(dimethylamino)-2-fluoro-pyridin-3-yl]phenyl]imidazo[1,2-a]pyridin-6-yl]oxyethoxy]ethoxy]isoindole-1,3-dione]
> 10			CN(C)c1ccc2nc(-c3ccc(-c4ccc(NCCOCCOc5ccc6c(c5)C(=O)N(C5CCC(=O)NC5=O)C6=O)nc4)cc3)sc2c1 (stereo not shown) [Compound 161177, 2-[2,6-bis(oxo)piperidin-3-yl]-5-[2-[2-[[5-[4-[6-(dimethylamino)-1,3-benzothiazol-2-yl]phenyl]pyridin-2-yl]amino]ethoxy]ethoxy]isoindole-1,3-dione]
0.01 to 0.9	concentration-dependent inhibition		COc1ccc2nc(-c3ccc(-c4ccnc(NCCOCCOc5ccc6c(c5)CN(C5CCC(=O)NC5=O)C6=O)c4)cc3)cn2c1 (stereo not shown) [Compound 162640, 3-[6-[2-[2-[[4-[4-(6-methoxyimidazo[1,2-a]pyridin-2-yl)phenyl]pyridin-2-yl]amino]ethoxy]ethoxy]-3-oxidanylidene-1H-isoindol-2-yl]piperidine-2,6-dione]
> 10			CN(C)c1ccc(-c2ccc(-c3nc4ccc(NCCOCCN5C(=O)CCC(N6Cc7c(N)cccc7C6=O)C5=O)cc4s3)cc2)cn1 (stereo not shown) [Compound 162641, 3-(7-azanyl-3-oxidanylidene-1H-isoindol-2-yl)-1-[2-[2-[[2-[4-[6-(dimethylamino)pyridin-3-yl]phenyl]-1,3-benzothiazol-6-yl]amino]ethoxy]ethyl]piperidine-2,6-dione]
0.01 to 0.9			CN(C)c1ccc(-c2ccc(-c3nc4ccc(OCCOCCOc5ccc6c(c5)CN(C5CCC(=O)NC5=O)C6=O)cc4o3)cc2)cn1 (stereo not shown) [Compound 163365]
> 10			Cc1ncsc1-c1ccc(CNC(=O)[C@@H]2C[C@@H](O)CN2C(=O)[C@@H](NC(=O)COCCOCCOc2ccc3nc(-c4ccc(-c5ccc(N(C)C)nc5)cc4C(F)(F)F)sc3c2)C(C)(C)C)cc1 [Compound 165554]
> 10			Cc1ncsc1-c1ccc(CNC(=O)[C@@H]2C[C@@H](O)CN2C(=O)C(NC(=O)COCCOCCNc2cc(-c3ccc(-c4nc5ccc(F)cc5s4)cc3)ccn2)C(C)(C)C)cc1 (stereo partly shown) [Compound 165810]
> 10			O=C1CCC(N2Cc3cc(OCCOCCNc4cc(-c5ccc(-c6cn7cc(F)ccc7n6)cc5)ccn4)ccc3C2=O)C(=O)N1 (stereo not shown) [Compound 165824]
> 10			CN(C)c1ccc2nc(-c3ccc(-c4ccnc(NCCOCCOc5ccc6c(c5)CN(C5CCC(=O)NC5=O)C6=O)c4)cc3)sc2c1 (stereo not shown) [Compound 165950]
> 10			O=C1CCC(N2C(=O)c3ccc(OCCOCCNc4cc(-c5ccc(-c6nc7ccc(F)cc7s6)cc5)ccn4)cc3C2=O)C(=O)N1 (stereo not shown) [Compound 165952]
> 10			O=C1CCC(N2Cc3cc(OCCOCCNc4ccc(-c5ccc(-c6cc7ccncc7[nH]6)cc5)cn4)ccc3C2=O)C(=O)N1 (stereo not shown) [Compound 165954]
0.9 to 10	concentration-dependent inhibition	clear inhibition	CN(C)c1ccc(-c2ccc(-c3nc4ccc(NCCCNC(=O)COc5ccc6c(c5)CN(C5CCC(=O)NC5=O)C6=O)cc4s3)c(C(F)(F)F)c2)cn1 (stereo not shown) [Compound 166362]
0.9 to 10			CN(C)c1ccc(-c2ccc(-c3cn4cc(OCCOCCN5C(=O)CCC(N6C(=O)c7ccc(O)cc7C6=O)C5=O)ccc4n3)cc2)c(F)n1 (stereo not shown) [Compound 170350]

SMILES	DC50 [µM]	inhibition of MJFR14 immunoreactivity [1]	inhibition of MJFR14 immunoreactivity (6-day treatment, immunocytochemical images)
COc1cc(-c2ccc(N(C)C)nc2)ccc1-c1nc2ccc(NCCOCCOc3ccc4c(c3)CN(C3CCC(=O)NC3=O)C4=O)cc2s1 (stereo not shown) [Compound 129071]	> 10		
CN(C)c1ccc(-c2ccc(-c3nc4ccc(NCCCCCOc5ccc6c(c5)C(=O)N(C5CCC(=O)NC5=O)C6=O)cc4s3)cc2)cn1 (stereo not shown) [Compound 161103, 2-[2,6-bis(oxo)piperidin-3-yl]-5-[5-[[2-[4-[6-(dimethylamino)-pyridin-3-yl]phenyl]-1,3-benzothiazol-6-yl]amino]pentoxy]isoindole-1,3-dione]	> 10		
